Test results from patent US9045470B2, “Compounds and compositions as TLR activity modulators” (IRM LLC, priority 2009, dated 2015).

biological target: T1, human TLR7 (Homo sapiens, UniProt Q9NYK1); assay: Reporter gene assay: HEK293 cells stably transfected with human TLR7 and NF-kB-driven luciferase reporter; assay type: cell-based; details: not given
T1 construct: expressed in transfected cells; host or cells: HEK 293 (human embryonic kidney 293), stably transfected; co-transfected pNifty-Luciferase reporter
T1 sequence (Q9NYK1 27-1049): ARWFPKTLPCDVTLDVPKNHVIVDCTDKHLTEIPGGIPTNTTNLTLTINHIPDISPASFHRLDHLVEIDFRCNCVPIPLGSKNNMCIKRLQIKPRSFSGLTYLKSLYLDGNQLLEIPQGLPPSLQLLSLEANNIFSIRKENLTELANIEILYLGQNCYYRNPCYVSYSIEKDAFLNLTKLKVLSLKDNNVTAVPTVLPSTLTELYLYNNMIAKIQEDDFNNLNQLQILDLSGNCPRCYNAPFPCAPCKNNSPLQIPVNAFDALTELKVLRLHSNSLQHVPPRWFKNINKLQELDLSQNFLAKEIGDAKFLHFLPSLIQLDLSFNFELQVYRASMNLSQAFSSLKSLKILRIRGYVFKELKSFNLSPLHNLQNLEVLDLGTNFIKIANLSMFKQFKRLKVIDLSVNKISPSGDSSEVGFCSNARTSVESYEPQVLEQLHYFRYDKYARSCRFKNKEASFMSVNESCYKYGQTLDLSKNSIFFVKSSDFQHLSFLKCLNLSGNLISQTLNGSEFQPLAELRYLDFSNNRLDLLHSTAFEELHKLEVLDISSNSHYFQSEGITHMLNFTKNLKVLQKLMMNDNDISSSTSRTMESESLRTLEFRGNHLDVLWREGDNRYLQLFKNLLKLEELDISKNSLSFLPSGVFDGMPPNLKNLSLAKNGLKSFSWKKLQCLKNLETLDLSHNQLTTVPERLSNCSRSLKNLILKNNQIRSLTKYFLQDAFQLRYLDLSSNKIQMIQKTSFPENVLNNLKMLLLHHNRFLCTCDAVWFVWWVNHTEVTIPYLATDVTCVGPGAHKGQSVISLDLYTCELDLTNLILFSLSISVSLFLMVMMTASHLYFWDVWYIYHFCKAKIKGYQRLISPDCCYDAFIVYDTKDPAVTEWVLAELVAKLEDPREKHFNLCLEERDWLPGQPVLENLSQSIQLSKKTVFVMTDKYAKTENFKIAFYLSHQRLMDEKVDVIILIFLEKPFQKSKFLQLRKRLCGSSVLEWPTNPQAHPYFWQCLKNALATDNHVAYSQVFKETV
Protocol: Human embryonic kidney 293 (HEK 293) cells were stably transfected with human TLR7 and an NF-kB-driven luciferase reporter vector (pNifty-Luciferase). As a control assay, normal Hek293 transfected with pNifty-Luc were used. Cells were cultured in DMEM supplemented with 2 mM L-glutamine, 10% heart inactivated FBS, 1% penicillin and streptomycin, 2 μg/ml puromycin (InvivoGen #ant-pr-5) and 5 μg/ml of blasticidin (Invitrogen #46-1120). Bright-Glo™ Luciferase assay buffer and substrate were supplied by Promega #E263B and #E264B (assay substrate and buffer respectively). 384 well clear-bottom plates were supplied by Greiner bio-one (#789163-G) and were custom bar-coded plates.
Cells were plated at 25,000 cells/well in 384-well plates in a final volume of 50 μl of media. Cells were allowed to adhere to the plates after overnight (18 hours) culture at 37° C. and 5% CO2. Serially diluted experimental and positive control compounds were then dispensed to each well and incubated for 7 hours at 37° C. and 5% CO2. Cells stimulated with DMSO alone also serve as negative controls. After the incubation, 30 μl of the pre-mix assay buffer and substrate buffer were added to each well according to manufacturer's instructions.
The EC50 value in those experiments is given as that concentration of the test compound in question that provoke a response halfway between the baseline and maximum responses. […] Such EC50 values are obtained relative to the activity of resiquimod set to 100%.

Row | Structure (SMILES) | EC50 [nM]
1 | Cc1ccc2c(c1)nc(N)c1ncc(CCc3ccc(OCCCCCCP(=O)(O)O)cc3C)cc12 [Compound 23, 6-(4-(2-(5-amino-8-methylbenzo[f][1,7]naphthyridin-2-yl)ethyl)-3-methylphenoxy)hexylphosphonic acid] | 791
2 | Cc1cc(OCCCP(=O)(O)O)ccc1CCc1cnc2c(N)nc3cc(CCC(=O)O)ccc3c2c1 [Compound 15, 3-(5-amino-2-(2-methyl-4-(3-phosphonopropoxy)phenethyl)benzo[f][1,7]naphthyridin-8-yl)propanoic acid] | 65
3 | Cc1ccc2c(c1)nc(N)c1ncc(CCc3ccc(OCc4cccc(P(=O)(O)O)c4)cc3C)cc12 [Compound 13, 3-((4-(2-(5-amino-8-methylbenzo[f][1,7]naphthyridin-2-yl)ethyl)-3-methylphenoxy)methyl)phenylphosphonic acid] | 1050
4 | Cc1ccc2c(c1)nc(N)c1ncc(CCc3ccc(OCCOCCOCCC(F)(F)P(=O)(O)O)cc3C)cc12 [Compound 6, 3-(2-(2-(4-(2-(5-amino-8-methylbenzo[f][1,7]naphthyridin-2-yl)ethyl)-3-methylphenoxy)ethoxy)ethoxy)-1,1-difluoropropylphosphonic acid] | 1640
5 | Cc1cc(OCCOCCOCCC(F)(F)P(=O)(O)O)ccc1CCc1cnc2c(N)nc3cc(CCC(=O)O)ccc3c2c1 [Compound 17, 3-(5-amino-2-(4-(2-(2-(3,3-difluoro-3-phosphonopropoxy)ethoxy)ethoxy)-2-methylphenethyl)benzo[f][1,7]naphthyridin-8-yl)propanoic acid] | 5
6 | Cc1ccc2c(c1)nc(N)c1ncc(CCc3ccc(OCCP(=O)(O)O)cc3C)cc12 [Compound 22, 2-(4-(2-(5-amino-8-methylbenzo[f][1,7]naphthyridin-2-yl)ethyl)-3-methylphenoxy)ethylphosphonic acid] | 1160
7 | Cc1ccc2c(c1)nc(N)c1ncc(CCc3ccc(OCP(=O)(O)O)cc3C)cc12 [Compound 3, (4-(2-(5-amino-8-methylbenzo[f][1,7]naphthyridin-2-yl)ethyl)-3-methylphenoxy)methylphosphonic acid] | 3170
8 | Cc1ccc2c(c1)nc(N)c1ncc(CCc3ccc(OCCCCCP(=O)(O)O)cc3C)cc12 [Compound 27, 5-(4-(2-(5-amino-8-methylbenzo[f][1,7]naphthyridin-2-yl)ethyl)-3-methylphenoxy)pentylphosphonic acid] | 921
9 | Cc1ccc2c(c1)nc(N)c1ncc(CCc3ccc(OCCCCC(F)(F)P(=O)(O)O)cc3C)cc12 [Compound 4, 5-(4-(2-(5-amino-8-methylbenzo[f][1,7]naphthyridin-2-yl)ethyl)-3-methylphenoxy)-1,1-difluoropentylphosphonic acid] | 559
10 | COc1ccc(CCc2cnc3c(N)nc4cc(C(=O)P(=O)(O)O)ccc4c3c2)c(C)c1 [Compound 14, 5-amino-2-(4-methoxy-2-methylphenethyl)benzo[f][1,7]naphthyridine-8-carbonylphosphonic acid] | 885
11 | Cc1ccc2c(c1)nc(N)c1ncc(CCc3ccc(OCCCCCC(F)(F)P(=O)(O)O)cc3C)cc12 [Compound 24, 6-(4-(2-(5-amino-8-methylbenzo[f][1,7]naphthyridin-2-yl)ethyl)-3-methylphenoxy)-1,1-difluorohexylphosphonic acid] | 4260
12 | Cc1ccc2c(c1)nc(N)c1ncc(CCc3ccc(OCc4ccc(CC(F)(F)P(=O)(O)O)cc4)cc3C)cc12 [Compound 8, 2-(4-((4-(2-(5-amino-8-methylbenzo[f][1,7]naphthyridin-2-yl)ethyl)-3-methylphenoxy)methyl)phenyl)-1,1-difluoroethylphosphonic acid] | 375
13 | Cc1ccc2c(c1)nc(N)c1ncc(CCc3ccc(OCCOCCOCCP(=O)(O)O)cc3C)cc12 [Compound 26, 2-(2-(2-(4-(2-(5-amino-8-methylbenzo[f][1,7]naphthyridin-2-yl)ethyl)-3-methylphenoxy)ethoxy)ethoxy)ethylphosphonic acid] | 2590
14 | Cc1ccc2c(c1)nc(N)c1ncc(CCc3ccc(OCCCCP(=O)(O)O)cc3C)cc12 [Compound 28, 4-(4-(2-(5-amino-8-methylbenzo[f][1,7]naphthyridin-2-yl)ethyl)-3-methylphenoxy)butylphosphonic acid] | 524
15 | Cc1ccc2c(c1)nc(N)c1ncc(CCc3ccc(OCCOCCC(F)(F)P(=O)(O)O)cc3C)cc12 [Compound 7, 3-(2-(4-(2-(5-amino-8-methylbenzo[f][1,7]naphthyridin-2-yl)ethyl)-3-methylphenoxy)ethoxy)-1,1-difluoropropylphosphonic acid] | 1010
16 | COc1ccc(CCc2cnc3c(N)nc4cc(/C=C(\F)P(=O)(O)O)ccc4c3c2)c(C)c1 [Compound 12, (E)-2-(5-Amino-2-(4-methoxy-2-methylphenethyl)benzo[f][1,7]naphthyridin-8-yl)-1-fluorovinylphosphonic acid] | 201
17 | COc1ccc(CCc2cnc3c(N)nc4cc(CCP(=O)(O)O)ccc4c3c2)c(C)c1 [Compound 11, 2-(5-amino-2-(4-methoxy-2-methylphenethyl)benzo[f][1,7]naphthyridin-8-yl)ethylphosphonic acid] | 90
18 | Cc1ccc2c(c1)nc(N)c1ncc(CCc3ccc(OCc4ccc(CP(=O)(O)O)cc4)cc3C)cc12 [Compound 25, 4-((4-(2-(5-amino-8-methylbenzo[f][1,7]naphthyridin-2-yl)ethyl)-3-methylphenoxy)methyl)benzylphosphonic acid] | 975
19 | Cc1cc(OCCOCCOCCOCCP(=O)(O)O)ccc1CCc1cnc2c(N)nc3cc(CCC(=O)O)ccc3c2c1 [Compound 18, 3-(5-amino-2-(2-methyl-4-(2-(2-(2-(2-phosphonoethoxy)ethoxy)ethoxy)ethoxy)phenethyl)benzo[f][1,7]naphthyridin-8-yl)propanoic acid] | 964
20 | COc1ccc(CCc2cnc3c(N)nc4cc(/C=C/P(=O)(O)O)ccc4c3c2)c(C)c1 [Compound 10, (E)-2-(5-Amino-2-(4-methoxy-2-methylphenethyl)benzo[f][1,7]naphthyridin-8-yl)vinylphosphonic acid] | 153
21 | COc1ccc(CCc2cnc3c(N)nc4cc(C(=O)C(F)(F)P(=O)(O)O)ccc4c3c2)c(C)c1 [Compound 9, 2-(5-amino-2-(4-methoxy-2-methylphenethyl)benzo[f][1,7]naphthyridin-8-yl)-1,1-difluoro-2-oxoethylphosphonic acid] | 390

same assay, conditions: HEK293 stably transfected with human TLR7 and NF-kB luciferase reporter; 7 hours incubation; relative to resiquimod set to 100%; read-out: Human TLR7 EC50 (nM) HEK293

Row | Structure (SMILES) | EC50 [nM]
22 | Cc1ccc2c(c1)nc(N)c1ncc(CCc3ccc(OP(=O)(O)O)cc3C)cc12 [Compound 2, 4-(2-(5-amino-8-methylbenzo[f][1,7]naphthyridin-2-yl)ethyl)-3-methylphenyl dihydrogen phosphate] | 315
23 | Cc1cc(OCCOCCP(=O)(O)O)ccc1CCc1cnc2c(N)nc3cc(CCC(=O)O)ccc3c2c1 [Compound 21, 3-(5-amino-2-(2-methyl-4-(2-(2-phosphonoethoxy)ethoxy)phenethyl)benzo[f][1,7]naphthyridin-8-yl)propanoic acid] | 204

test system: not listed separately; assay: Binding to alum in 10 mM histidine buffer, LC-MS/MS of supernatant; assay type: physicochemical; details: 10 mM histidine buffer pH 6.8; final compound 0.1 mg/mL; 37° C. for 5 hours; 100% minus % unbound
Protocol: The resulting solution was diluted 10-fold with blank histidine buffer to a final compound concentration of 0.1 mg/mL. Diluted solutions were incubated at 37° C. for 5 hours. The samples were centrifuged at 14,000 rpm for 10 minutes to pellet the insoluble. The supernatant (along with an internal standard) was then evaluated by LC-MS/MS using a ballistic gradient (from 5% CH3CN-0.5% formic acid to 95% CH3CN-1.0% formic acid in 3.5 minutes) on a Waters Atlantis dC18 (50 mm×2.1 mm) column at room temperature against a calibration curve prepared at known compound concentrations ranging from 0.005 to 50 μM. The concentration in the supernatant was calculated as % unbound to alum compared to control; the % bound to alum was calculated as 100% minus % unbound.

Row | Structure (SMILES) | % Alum bound in Histidine buffer [%]
24 | Cc1ccc2c(c1)nc(N)c1ncc(CCc3ccc(OCCOCCOCCC(F)(F)P(=O)(O)O)cc3C)cc12 [Compound 6, 3-(2-(2-(4-(2-(5-amino-8-methylbenzo[f][1,7]naphthyridin-2-yl)ethyl)-3-methylphenoxy)ethoxy)ethoxy)-1,1-difluoropropylphosphonic acid] | 98.2
25 | Cc1cc(OCCOCCOCCC(F)(F)P(=O)(O)O)ccc1CCc1cnc2c(N)nc3cc(CCC(=O)O)ccc3c2c1 [Compound 17, 3-(5-amino-2-(4-(2-(2-(3,3-difluoro-3-phosphonopropoxy)ethoxy)ethoxy)-2-methylphenethyl)benzo[f][1,7]naphthyridin-8-yl)propanoic acid] | 96.2
26 | Cc1cc(OCCOCCC(F)(F)P(=O)(O)O)ccc1CCc1cnc2c(N)nc3cc(CCC(=O)O)ccc3c2c1 [Compound 19, 3-(5-amino-2-(4-(2-(3,3-difluoro-3-phosphonopropoxy)ethoxy)-2-methylphenethyl)benzo[f][1,7]naphthyridin-8-yl)propanoic acid] | 96.0
